ChEMBL document CHEMBL3085678, “3-Azatetracyclo[5.2.1.1(5,8).0(1,5)]undecane derivatives: from wild-type inhibitors of the M2 ion channel of influenza A virus to derivatives with potent activity against the V27A mutant” (J Med Chem, 2013)

Experiments:
Influenza B virus [1] = assay: Antiviral activity against Influenza B virus (B/Hong Kong/05/1972) harboring wild type M2 channel infected in MDCK cells assessed as reduction of cytopathic effect after 72 hrs by MTS assay; type: functional, cell-based; conditions: B/Hong Kong/05/1972, MDCK
Influenza B virus [2] = assay: Antiviral activity against Influenza B virus (B/Hong Kong/05/1972) harboring wild type M2 channel infected in MDCK cells assessed as reduction of cytopathic effect after 72 hrs by microsocopic analysis; type: functional, cell-based; conditions: B/Hong Kong/05/1972, MDCK
H3N2 subtype [3] = assay: Antiviral activity against Influenza A virus (A/Hong Kong/7/1987(H3N2)) harboring wild type M2 channel infected in MDCK cells assessed as reduction of cytopathic effect after 72 hrs by MTS assay; type: functional, organism-based
Influenza A virus [4] = assay: Antiviral activity against Influenza A virus (A/Puerto Rico/8/34(H1N1)) harboring M2 channel S31N and V27T mutant infected in MDCK cells assessed as reduction of cytopathic effect after 72 hrs by MTS assay; type: functional, organism-based, A/Puerto Rico/8/1934(H1N1)
Influenza A virus [5] = assay: Antiviral activity against Influenza A virus (A/Puerto Rico/8/34(H1N1)) harboring M2 channel S31N and V27T mutant infected in MDCK cells assessed as reduction of cytopathic effect after 72 hrs by microsocopic analysis; type: functional, organism-based, A/Puerto Rico/8/1934(H1N1)
H3N2 subtype [6] = assay: Antiviral activity against Influenza A virus (A/Hong Kong/7/1987(H3N2)) harboring wild type M2 channel infected in MDCK cells assessed as reduction of cytopathic effect after 72 hrs by microsocopic analysis; type: functional, organism-based
H3N2 subtype [7] = assay: Antiviral activity against Influenza A virus (A/Hong Kong/7/1987(H3N2)) harboring wild type M2 channel infected in MDCK cells assessed as concentration required to 2 log10 reduction of virus yield after 24 hrs by RT-PCR analysis; type: functional

CN1CC23CC4CC2(CC4C3)C1
> 100 µM: EC50 (Influenza B virus [1]) | EC50 (Influenza B virus [2]) | EC50 (H3N2 subtype [3]) | EC50 (Influenza A virus [4]) | EC50 (Influenza A virus [5]) | EC50 (H3N2 subtype [6])

NC12CC3CC(CC(C3)C1)C2 [AMANTADINE]
38 µM: EC50 (Influenza A virus [4])
34 µM: EC50 (Influenza A virus [5])
0.84 µM: EC50 (H3N2 subtype [6])
0.82 µM: EC50 (H3N2 subtype [3])
> 500 µM: EC50 (Influenza B virus [1]) | EC50 (Influenza B virus [2])

CC12CC34CNCC3(C1)CC2(C)C4
> 100 µM: EC50 (Influenza B virus [1]) | EC50 (Influenza B virus [2]) | EC50 (H3N2 subtype [3]) | EC50 (Influenza A virus [4]) | EC50 (Influenza A virus [5])
1.6 µM: EC50 (H3N2 subtype [6])

CC12CC34CN(C(=N)N)CC3(C1)CC2(C)C4
> 100 µM: EC50 (Influenza B virus [1]) | EC50 (Influenza B virus [2]) | EC50 (H3N2 subtype [3]) | EC50 (Influenza A virus [4]) | EC50 (Influenza A virus [5]) | EC50 (H3N2 subtype [6])

N=C(N)N1CC23CC4CC2(CC4C3)C1
> 50 µM: EC50 (Influenza B virus [1]) | EC50 (Influenza B virus [2]) | EC50 (H3N2 subtype [3]) | EC50 (Influenza A virus [4]) | EC50 (Influenza A virus [5]) | EC50 (H3N2 subtype [6])

CC(N)C12CC3CC(CC(C3)C1)C2 (stereo not drawn) [RIMANTADINE]
> 500 µM: EC50 (Influenza B virus [1]) | EC50 (Influenza B virus [2])
0.62 µM: EC50 (H3N2 subtype [6])
18 µM: EC50 (Influenza A virus [5])
>4 µM: EC99 (H3N2 subtype [7])
0.12 µM: EC50 (H3N2 subtype [3])
4.3 µM: EC50 (Influenza A virus [4])

CCC12CC34CNCC3(C1)CC2(CC)C4
> 100 µM: EC50 (Influenza B virus [1]) | EC50 (Influenza B virus [2]) | EC50 (H3N2 subtype [3]) | EC50 (Influenza A virus [4]) | EC50 (Influenza A virus [5]) | EC50 (H3N2 subtype [6])

C1CCC23CC45CNCC4(CC2(C1)C5)C3
> 100 µM: EC50 (Influenza B virus [1]) | EC50 (Influenza B virus [2]) | EC50 (H3N2 subtype [3]) | EC50 (Influenza A virus [4]) | EC50 (Influenza A virus [5]) | EC50 (H3N2 subtype [6])

C1NCC23CC4CC12CC4C3
> 100 µM: EC50 (Influenza B virus [1]) | EC50 (Influenza B virus [2]) | EC50 (Influenza A virus [4]) | EC50 (Influenza A virus [5])
7.9 µM: EC50 (H3N2 subtype [6])
7.2 µM: EC50 (H3N2 subtype [3])

CCC12CC34CN(C(=N)N)CC3(C1)CC2(CC)C4
> 100 µM: EC50 (Influenza B virus [1]) | EC50 (Influenza B virus [2]) | EC50 (H3N2 subtype [3]) | EC50 (Influenza A virus [4]) | EC50 (Influenza A virus [5]) | EC50 (H3N2 subtype [6])

CN1CC23CC4(C)CC2(C1)CC4(C)C3
> 100 µM: EC50 (Influenza B virus [1]) | EC50 (Influenza B virus [2]) | EC50 (H3N2 subtype [3]) | EC50 (Influenza A virus [4]) | EC50 (Influenza A virus [5]) | EC50 (H3N2 subtype [6])

N=C(N)N1CC23CC45CCCCC4(C2)CC3(C1)C5
> 100 µM: EC50 (Influenza B virus [1]) | EC50 (Influenza B virus [2]) | EC50 (H3N2 subtype [3]) | EC50 (Influenza A virus [4]) | EC50 (Influenza A virus [5]) | EC50 (H3N2 subtype [6])
